The nature of one data set: pH of dietary/therapeutic supplements, alkaline minerals and supplement compositions. The data set is classed as physicochemical. The settings on record: dietary or therapeutic supplement prior to combination with alkaline minerals (table). The source says: It is noted that wherein pH is referred to for a dry or non-liquid material, it means where the material is mixed with a liquid, such as in the body of a user.
When an individual takes any one of these supplements with the meal, the body begins the digestion process of the supplement and the meal and the body begins to try to eliminate resulting waste due to needed raise in pH and to buffer the system. The body will utilize any buffer that can be found within the food, supplement, and after that will begin to draw the alkaline minerals from within the system itself.
For the molecule `O=C1O[C@H]([C@@H](O)CO)C(O)=C1O` [Ascorbic Acid], the pH was determined as 3.23. Same read-out and setting: under `N[C@H]1C(O)O[C@H](CO)[C@@H](O)[C@@H]1O` (stereo partly drawn) [Glucosamine] stands 5.5; under `O=C(O)c1cccnc1` [Niacin], 3.4; under `[Zn]` [Zinc], 3.5. On the same count and under the same terms, under Vitamin E stands 6.1.

The same data set, now with this note: lower value, 'and up depending upon the form' of the mineral.
With `[Ca+2]` [calcium], the “pH of alkaline mineral” value was at least 8.28. `[Mg+2]` [magnesium]: the “pH of alkaline mineral” value was at least 7.20. Same read-out and setting: under `[K+]` [potassium] stands at least 9.69.

Staying with this data set, now noted: supplement or ingredient alone, without alkaline electrolytes (text; typical/normal value).
With `O=C1O[C@H]([C@@H](O)CO)C(O)=C1O` [Ascorbic Acid], the pH entry is “about 3.23”.

Values taken from patent US9808441B2, “Dietary supplement containing alkaline electrolyte buffers” (priority 1999, dated 2017).
